Results reported in ChEMBL document CHEMBL4483862, “Open-source discovery of chemical leads for next-generation chemoprotective antimalarials” (2018).

System: Plasmodium berghei
Test: Luciferase/luciferin-expressing antifolate-resistant parasites were used to infect a culture of HepG2 cells that were pre-incubated with compounds. Infected hepatocytes emit light due to the luciferase reaction. Assay results are presented as the percent inhibition of light emission compared to control. […]
Type: functional
Settings: sporozoite; for IC90: read-out: LUCIFERASE INFECTION ASSAY - IC90

Structure (SMILES)	IC90	also measured
Nc1nc2ccccc2n1Cc1ccc(Cl)cc1	5.46 µM	IC50 (HEPG2TOX_HILL_SLOPE 1, HEPG2TOX_R_SQUARED 0.963, PBLUC_HILL_SLOPE 11.6, PBLUC_R_SQUARED 0.65, read-out: LUCIFERASE INFECTION ASSAY - IC50): 4.52 µM
CC1CC(C)CN(C2=CC(=[N+]3CCCC3)CC(C)(C)C2)C1 (centres undefined)	2.02 µM	IC50 (HEPG2TOX_HILL_SLOPE 0.983, HEPG2TOX_R_SQUARED 0.985, PBLUC_HILL_SLOPE 2.02, PBLUC_R_SQUARED 0.664, read-out: LUCIFERASE INFECTION ASSAY - IC50): 0.682 µM
CNc1nnc(Sc2nc(CN3CCCCC3)nc3scc(-c4ccccc4)c23)s1	3.67 µM	IC50 (HEPG2TOX_HILL_SLOPE 0.991, HEPG2TOX_R_SQUARED 0.829, PBLUC_HILL_SLOPE 15.5, PBLUC_R_SQUARED 0.389, read-out: LUCIFERASE INFECTION ASSAY - IC50): 3.19 µM
OCc1ccc(-c2cnc3cnc(/C=C/c4ccccc4)cn23)cc1	0.659 µM	IC50 (HEPG2TOX_HILL_SLOPE 0.99, HEPG2TOX_R_SQUARED 0.698, PBLUC_HILL_SLOPE 2.37, PBLUC_R_SQUARED 0.796, read-out: LUCIFERASE INFECTION ASSAY - IC50): 0.261 µM
COc1ccc2c(c1)CCCN2C(=O)c1occc1C	1.23 µM	IC50 (HEPG2TOX_HILL_SLOPE 0.966, HEPG2TOX_R_SQUARED 0.937, PBLUC_HILL_SLOPE 15.5, PBLUC_R_SQUARED 0.354, read-out: LUCIFERASE INFECTION ASSAY - IC50): 1.07 µM
Cc1cc(=O)oc2cc(Oc3nc(CN4CCOCC4)nc4sc5c(c34)CCCC5)c(Cl)cc12	> 10 µM	IC50 (HEPG2TOX_HILL_SLOPE 1.03, HEPG2TOX_R_SQUARED 0.724, read-out: LUCIFERASE INFECTION ASSAY - IC50): > 10 µM
COc1ccc(-c2cnc3cnc(-c4cnn(C)c4)cn23)cc1	> 10.8 µM	IC50 (HEPG2TOX_HILL_SLOPE 0.995, HEPG2TOX_R_SQUARED 0.66, PBLUC_HILL_SLOPE 1.64, PBLUC_R_SQUARED 0.772, read-out: LUCIFERASE INFECTION ASSAY - IC50): 3.01 µM
Cn1cc(/C=C/C(=O)Nc2ncc(Cc3ccccc3)s2)cn1	2.15 µM	IC50 (HEPG2TOX_HILL_SLOPE 0.97, HEPG2TOX_R_SQUARED 0.894, PBLUC_HILL_SLOPE 1.67, PBLUC_R_SQUARED 0.671, read-out: LUCIFERASE INFECTION ASSAY - IC50): 0.578 µM
Cc1cc(C(=O)NN2Cc3ccccc3C2=N)c(C)n1-c1ccccc1	> 10 µM	IC50 (HEPG2TOX_HILL_SLOPE 1.03, HEPG2TOX_R_SQUARED 0.677, read-out: LUCIFERASE INFECTION ASSAY - IC50): > 10 µM
Cn1ncc(C#N)c1NC(=O)c1cccc(Oc2ccccc2)c1	8.69 µM	IC50 (HEPG2TOX_HILL_SLOPE 1.03, HEPG2TOX_R_SQUARED 0.84, PBLUC_HILL_SLOPE 1.64, 1.43, PBLUC_R_SQUARED 0.588, 0.656, read-out: LUCIFERASE INFECTION ASSAY - IC50): 2.85 µM
CC(C)(C)c1cc2nc(C(F)(F)F)cc(SCCOC(=O)Nc3cccc(Cl)c3)n2n1	> 6.98 µM	IC50 (HEPG2TOX_HILL_SLOPE 1.03, HEPG2TOX_R_SQUARED 0.0682, read-out: LUCIFERASE INFECTION ASSAY - IC50): > 6.98 µM
CCOc1cc(/C=C/C(=O)c2ccc(-c3ccccc3)cc2)ccc1OCC(=O)N(C)C	> 10 µM	IC50 (HEPG2TOX_HILL_SLOPE 0.976, HEPG2TOX_R_SQUARED 0.779, read-out: LUCIFERASE INFECTION ASSAY - IC50): > 10 µM
O=C(Nc1nc2ccc([N+](=O)[O-])cc2s1)c1cccc(Cl)c1	> 10 µM	IC50 (HEPG2TOX_HILL_SLOPE 0.963, HEPG2TOX_R_SQUARED 0.986, PBLUC_HILL_SLOPE 0.779, PBLUC_R_SQUARED 0.754, read-out: LUCIFERASE INFECTION ASSAY - IC50): 0.754 µM
COc1ccc(-n2c(C)cc(C(=O)Cn3ncc(Cl)c(Cl)c3=O)c2C)cc1	> 10 µM	IC50 (HEPG2TOX_HILL_SLOPE 0.989, HEPG2TOX_R_SQUARED 0.688, read-out: LUCIFERASE INFECTION ASSAY - IC50): > 10 µM
O=C1CCCN1CCCNc1cc(-c2ccccc2)c2ccccc2n1	4.46 µM	IC50 (HEPG2TOX_HILL_SLOPE 0.987, HEPG2TOX_R_SQUARED 0.959, PBLUC_HILL_SLOPE 13.1, PBLUC_R_SQUARED 0.545, read-out: LUCIFERASE INFECTION ASSAY - IC50): 3.77 µM
CCCCNC(=O)c1c(NC(=O)c2cccc(Cl)c2Cl)nc2ccc(C)cn12	1.27 µM	IC50 (HEPG2TOX_HILL_SLOPE 1.01, HEPG2TOX_R_SQUARED 0.774, PBLUC_HILL_SLOPE 4.09, PBLUC_R_SQUARED 0.588, read-out: LUCIFERASE INFECTION ASSAY - IC50): 0.743 µM

Structure (SMILES)	IC90	also measured
CC1=C(C(=O)OCc2ccccc2)C(c2ccc(Cl)c([N+](=O)[O-])c2)n2nnnc2N1 (centres undefined)	> 10 µM	IC50 (HEPG2TOX_HILL_SLOPE 0.964, HEPG2TOX_R_SQUARED 0.562, read-out: LUCIFERASE INFECTION ASSAY - IC50): > 10 µM
CC(=O)Nc1cccc(-c2cnc3ccc(-c4ccc(S(C)(=O)=O)cc4)nn23)c1	9.62 µM	IC50 (HEPG2TOX_HILL_SLOPE 0.982, HEPG2TOX_R_SQUARED 0.906, PBLUC_HILL_SLOPE 3.7, PBLUC_R_SQUARED 0.22, read-out: LUCIFERASE INFECTION ASSAY - IC50): 5.31 µM
COc1cccc(-c2ccc3ncc(-c4ccc(NC(C)=O)cc4)n3n2)c1	3.39 µM	IC50 (HEPG2TOX_HILL_SLOPE 0.992, HEPG2TOX_R_SQUARED 0.946, PBLUC_HILL_SLOPE 0.779, PBLUC_R_SQUARED 0.716, read-out: LUCIFERASE INFECTION ASSAY - IC50): 0.202 µM
COc1ccc(NC(=O)c2cc(-c3ccccc3)n(-c3ccccc3)c2C)cc1	4.38 µM	IC50 (HEPG2TOX_HILL_SLOPE 0.976, HEPG2TOX_R_SQUARED 0.937, PBLUC_HILL_SLOPE 1.32, PBLUC_R_SQUARED 0.59, read-out: LUCIFERASE INFECTION ASSAY - IC50): 0.834 µM
O=c1ccc(-c2nc3c4c5c(sc4ncn3n2)CCCCC5)n[nH]1	8.47 µM	IC50 (HEPG2TOX_HILL_SLOPE 0.965, HEPG2TOX_R_SQUARED 0.912, PBLUC_HILL_SLOPE 1.19, PBLUC_R_SQUARED 0.691, read-out: LUCIFERASE INFECTION ASSAY - IC50): 1.33 µM
CN(C)CCNC(=O)c1cccc(-c2cnc3ccc(-c4cccc(CO)c4)nn23)c1	1.58 µM	IC50 (HEPG2TOX_HILL_SLOPE 0.999, HEPG2TOX_R_SQUARED 0.943, PBLUC_HILL_SLOPE 3.71, PBLUC_R_SQUARED 0.586, read-out: LUCIFERASE INFECTION ASSAY - IC50): 0.873 µM
Cc1nc(/C=C/C(=O)Nc2nc3ccccc3[nH]2)cs1	1.37 µM	IC50 (HEPG2TOX_HILL_SLOPE 0.99, HEPG2TOX_R_SQUARED 0.611, PBLUC_HILL_SLOPE 0.644, PBLUC_R_SQUARED 0.42, read-out: LUCIFERASE INFECTION ASSAY - IC50): 0.0451 µM
COc1cccc(Nc2nccc3[nH]c(-c4cc(OC)cc(OC)c4)cc23)c1	1.74 µM	IC50 (HEPG2TOX_HILL_SLOPE 0.988, HEPG2TOX_R_SQUARED 0.934, PBLUC_HILL_SLOPE 2.38, PBLUC_R_SQUARED 0.617, read-out: LUCIFERASE INFECTION ASSAY - IC50): 0.69 µM
O=C(NC1CCCc2ccccc21)c1ccc2c(c1)S(=O)(=O)c1ccccc1C2=O (centres undefined)	> 10 µM	IC50 (HEPG2TOX_HILL_SLOPE 1, HEPG2TOX_R_SQUARED 0.0756, read-out: LUCIFERASE INFECTION ASSAY - IC50): > 10 µM
NS(=O)(=O)c1ccc(CNC(=O)c2ccc(Cn3cccn3)cc2)s1	> 10 µM	IC50 (HEPG2TOX_HILL_SLOPE 0.983, HEPG2TOX_R_SQUARED 0.0206, read-out: LUCIFERASE INFECTION ASSAY - IC50): > 10 µM
O=c1c2cc(Cl)cc(Cl)c2nc(-c2cccc(C(F)(F)F)c2)n1O	> 8.8 µM	IC50 (HEPG2TOX_HILL_SLOPE 1.01, HEPG2TOX_R_SQUARED 0.454, PBLUC_HILL_SLOPE 14.5, PBLUC_R_SQUARED 0.382, read-out: LUCIFERASE INFECTION ASSAY - IC50): 8.11 µM
CC(C)N1CCCc2cc(CN3CCC4(CC3)C(=O)N(CCCc3ccncc3)C(=O)N4C)ccc21	> 6.74 µM	IC50 (HEPG2TOX_HILL_SLOPE 0.974, HEPG2TOX_R_SQUARED 0.954, PBLUC_HILL_SLOPE 1.42, PBLUC_R_SQUARED 0.506, read-out: LUCIFERASE INFECTION ASSAY - IC50): 3.48 µM
O=C(Nc1ccc2c(c1)OCO2)C1CCN(c2ccnc3cc(Cl)ccc23)CC1	8.1 µM	IC50 (HEPG2TOX_HILL_SLOPE 0.967, HEPG2TOX_R_SQUARED 0.942, PBLUC_HILL_SLOPE 2.72, PBLUC_R_SQUARED 0.6, read-out: LUCIFERASE INFECTION ASSAY - IC50): 3.61 µM
COc1cc2c(cc1OC)C(c1cccs1)N(C(=O)Nc1cc(C)on1)CC2 (centres undefined)	2.7 µM	IC50 (HEPG2TOX_HILL_SLOPE 0.982, HEPG2TOX_R_SQUARED 0.92, PBLUC_HILL_SLOPE 3.46, PBLUC_R_SQUARED 0.391, read-out: LUCIFERASE INFECTION ASSAY - IC50): 1.43 µM
c1ccn2c(Sc3ncnc4ccsc34)nnc2c1	> 10 µM	IC50 (HEPG2TOX_HILL_SLOPE 1.03, HEPG2TOX_R_SQUARED 0.779, PBLUC_HILL_SLOPE 16.5, PBLUC_R_SQUARED 0.198, read-out: LUCIFERASE INFECTION ASSAY - IC50): 9.21 µM
Cc1ccccc1-c1cccc(CN2CCC3(CC2)C(=O)N(CCCc2ccncc2)C(=O)N3C)c1	2.53 µM	IC50 (HEPG2TOX_HILL_SLOPE 0.98, HEPG2TOX_R_SQUARED 0.922, PBLUC_HILL_SLOPE 14, PBLUC_R_SQUARED 0.565, read-out: LUCIFERASE INFECTION ASSAY - IC50): 2.16 µM
